Results from patent US10000555B2, “Monomethylvaline compounds having phenylalanine side-chain modification at the C-terminus” (Seattle Genetics, Inc., priority 2005, dated 2018).

Tests used:
Assay type in all cases: cell-based
Caki-1 = assay: In vitro cytotoxicity of h1F6-MC-val-cit-PAB-MMAZ conjugates on CD70+ cell line Caki-1; conditions: Caki-1 renal cell carcinoma, approximately 4 drugs per antibody
Protocol: (§1) The cytotoxic activity of MMAZ and antibody-drug conjugates is evaluated on the CD70+ positive cell lines, for example, Caki-1, renal cell carcinoma; L428, Hodgkin's disease; U251, glioblastoma. To evaluate the cytotoxicity of compounds, cells can be seeded at approximately 5-10,000 per well in 150 μl of culture medium, then treated with graded doses of compounds in quadruplicates at the initiation of assay. Cytotoxicity assays are usually carried out for 96 hours after addition of test compounds. Fifty μl of resazurin dye may be added to each well during the last 4 to 6 hours of the incubation to assess viable cells at the end of culture. Dye reduction can be determined by fluorescence spectrometry using the excitation and emission wavelengths of 535 nm and 590 nm, respectively. For analysis, the extent of resazurin reduction by the treated cells can be compared to that of the untreated control cells.
(§2) To evaluate the cytotoxicity of conjugates, cells are seeded at approximately 5-10,000 per well in 150 μl of culture medium and then treated with graded doses of conjugates in quadruplicates at the initiation of assay. Cytotoxicity assays are carried out for 96 hours after addition of test compounds. Fifty μl of the resazurin dye is added to each well during the last 4 to 6 hours of the incubation to assess viable cells at the end of culture. Dye reduction is determined by fluorescence spectrometry using the excitation and emission wavelengths of 535 nm and 590 nm, respectively. For analysis, the extent of resazurin reduction by the treated cells is compared to that of the untreated control cells.

U251 = assay: In vitro cytotoxicity of h1F6-MC-val-cit-PAB-MMAZ conjugates on CD70+ cell line U251; conditions: U251 glioblastoma, approximately 4 drugs per antibody
Protocol: as §1, §2

L428 = assay: In vitro cytotoxicity of h1F6-MC-val-cit-PAB-MMAZ conjugates on CD70+ cell line L428; conditions: for IC50 (ng/mL) of h1F6-MC-val-cit-PAB-MMAZ conjugates on CD70+ cell lines, L428: L428 Hodgkin's disease, approximately 4 drugs per antibody
Protocol: as §1, §2

Row | Substance | IC50 (ng/mL) of h1F6-MC-val-cit-PAB-MMAZ conjugates on CD70+ cell lines, Caki-1 (Caki-1) | IC50 (ng/mL) of h1F6-MC-val-cit-PAB-MMAZ conjugates on CD70+ cell lines, U251 (U251) | IC50 (ng/mL) of h1F6-MC-val-cit-PAB-MMAZ conjugates on CD70+ cell lines, L428 (L428) | Maximum inhibition, L428 (L428; @ 141 ng/ml) | Maximum inhibition, L428 (L428; @ 1000 ng/ml) | Maximum inhibition, L428 (L428; @ 100 ng/ml)
1 | Maleimidocaproyl-Val-Cit-PAB-MeVal-Val-Dil-Dap-2-Chloro-Phe-OH [SP3-a] | 4.4 ng/mL | 8 ng/mL | 8 ng/mL | – | – | –
2 | Maleimidocaproyl-Val-Cit-PAB-MeVal-Val-Dil-Dap-3-(3-pyridyl)-L-Ala-OH [SP3-h] | 16 ng/mL | 16 ng/mL | 12 ng/mL | – | – | –
3 | Maleimidocaproyl-Val-Cit-PAB-MeVal-Val-Dil-Dap-Glu(OtBu)-OH [SP3-l] | 51 ng/mL | 43 ng/mL | – | Maximum inhibition = 12% @ 141 ng/ml | – | –
4 | Maleimidocaproyl-Val-Cit-PAB-MeVal-Val-Dil-Dap-L-β-homophe-OH [SP3-d] | 9 ng/mL | 11 ng/mL | 33 ng/mL | – | – | –
5 | Maleimidocaproyl-Val-Cit-PAB-MeVal-Val-Dil-Dap-Met-OH [SP3-j] | 18 ng/mL | 23 ng/mL | 43 ng/mL | – | – | –
6 | Maleimidocaproyl-Val-Cit-PAB-MeVal-Val-Dil-Dap-Tic-OH [SP3-c] | 28 ng/mL | 20 ng/mL | – | – | Maximum inhibition = 12% @ 1000 ng/ml | –
7 | Maleimidocaproyl-Val-Cit-PAB-MeVal-Val-Dil-Dap-Trp(Boc)-OH [SP3-k] | 6 ng/mL | 7.5 ng/mL | 11 ng/mL | – | – | –
8 | Maleimidocaproyl-Val-Cit-PAB-MeVal-Val-Dil-Dap-p-Amino-Phe-OH [SP3-e] | No effect | No effect | – | – | – | Maximum inhibition = 10% @ 100 ng/ml
9 | Maleimidocaproyl-Val-Cit-PAS-MeVal-Val-Dil-Dap-Me-Phe-OH [SP3-b] | 6 ng/mL | 8 ng/mL | 6 ng/mL | – | – | –
